Laboratory results: PubChem BioAssay (NCI)
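Exposure lasted 48 hours, with cells grown in 96-well plates and compounds tested at five concentrations. GI50 is the concentration that inhibits growth by half. TGI is the concentration that stops growth completely.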

Columns and labels:
Test in all cases: NCI tumour cell line growth inhibition, 48 h
SF-268 CNS = system: SF-268 CNS
RPMI-8226 leukemia = system: RPMI-8226 leukemia
HOP-92 NSCLC = system: HOP-92 NSCLC
SN12C renal = system: SN12C renal
COLO 205 colon = system: COLO 205 colon
NCI-H460 lung = system: NCI-H460 lung
MCF7 breast = system: MCF7 breast
K-562 leukemia = system: K-562 leukemia
MOLT-4 leukemia = system: MOLT-4 leukemia
TK-10 renal = system: TK-10 renal

| Compound | TGI (SF-268 CNS) [µM] | TGI (RPMI-8226 leukemia) [µM] | TGI (HOP-92 NSCLC) [µM] | TGI (SN12C renal) [µM] | TGI (COLO 205 colon) [µM] | TGI (NCI-H460 lung) [µM] | TGI (MCF7 breast) [µM] | TGI (K-562 leukemia) [µM] | TGI (MOLT-4 leukemia) [µM] | TGI (TK-10 renal) [µM] | GI50 (SF-268 CNS) [µM] | GI50 (RPMI-8226 leukemia) [µM] | GI50 (HOP-92 NSCLC) [µM] | GI50 (SN12C renal) [µM] | GI50 (COLO 205 colon) [µM] | GI50 (NCI-H460 lung) [µM] | GI50 (MCF7 breast) [µM] | GI50 (K-562 leukemia) [µM] | GI50 (MOLT-4 leukemia) [µM] | GI50 (TK-10 renal) [µM] |
| --- | --- | --- | --- | --- | --- | --- | --- | --- | --- | --- | --- | --- | --- | --- | --- | --- | --- | --- | --- | --- |
| O=C(C#Cc1ccccc1)N1CCCCC1 | > 100 | > 100 | > 100 | > 100 | > 100 | > 100 | > 100 | > 100 | > 100 | > 100 |  |  |  |  |  |  |  |  |  |  |
| Cn1cc(-c2nc(-c3c[nH]c4ccccc34)cs2)c2cccnc21 | > 100 | 32.3 | 17.2 | > 100 | 1.03 | > 100 | > 100 | > 100 | > 60.3 | 65.1 | 0.689 | 0.541 | 0.295 | 2.09 | 0.188 | 0.339 | 0.325 | 0.106 | 0.757 | 1.46 |
| CC(C)Cc1cc(-c2cccn2C)c(C#N)c(=O)[nH]1 | > 100 | > 100 | > 100 | > 100 | > 100 | > 100 | > 100 | > 100 | > 100 | > 100 | > 100 | > 100 | > 100 | > 100 | > 100 | > 100 | > 100 | > 100 | 22.5 | > 100 |
| O=C(Nc1ccc(-c2cn3ccccc3n2)cc1)c1cc(Br)ccc1O | > 100 | > 100 | > 100 | > 100 | > 100 | > 100 | > 100 | > 100 | > 100 | > 100 |  |  |  |  |  |  |  |  |  |  |
| OCC1OC(n2cnc3cc(Cl)c(Cl)cc32)C(O)C1O (stereo not drawn) | > 87.9 | > 72.5 | 99 | 58.4 | > 84.5 | > 100 | 75.9 | > 100 | > 41.3 | > 86.4 | 30.7 | 30 | 35.2 | 20.6 | 23.8 | 30 | 21.5 | 44.8 | 3.85 | 29.3 |
| Nc1[nH]c(=S)[nH]c(=O)c1N=Nc1c(Br)cc(S(N)(=O)=O)cc1Br | > 100 | > 100 | > 100 | > 100 | > 100 | > 100 | > 100 | > 100 | > 100 | > 100 |  |  |  |  |  |  |  |  |  |  |
| COc1cccc(/C=C/C(=O)c2cc3c(N)c(C(=O)Nc4ccccc4)sc3nc2C)c1 | 5.82 | 2.54 | 4.24 | 2.78 | 4.71 | 2.47 | 8.85 | > 50 | > 50 | 5.47 | 1.47 | 1.18 | 1.08 | 1.12 | 1.54 | 1.1 | 1.69 | 1.47 | 1.59 | 1.56 |
| Cc1cc(S(=O)(=O)Nc2nc3ccccc3s2)c(SCc2ccccc2)cc1Cl | 73.9 | 37.2 | 43.6 | 28.6 | 68.4 | > 100 | > 100 | > 100 |  | 44.7 | 27.1 | 9.25 | 11.8 | 14.3 | 30 | 21.4 | 31 | 15.6 |  | 14.1 |
